Like-named read-outs stand apart in the source and are kept apart here.
What was measured:
MiaPaCa-2 cells = assay: MTT cytotoxicity assay, MiaPaCa-2; assay type: cell-based; conditions: Homo sapiens, MTT assay, Mean ± SD, three independent experiments
Protocol: (§1) MiaPaCa-2, Panc-1 and BxPC-3 pancreatic cancer cell lines were obtained from the ATCC. Normal pancreatic cells HPDE and HPNE were kindly provided (Translational Oncology Program, University of […], Ann Arbor, Mich.). Gemcitabine resistant cell line MiaPaCa-2-GR (gemcitabine resistant) was kindly provided (Department of Pathology, Wayne State University, Detroit, Mich.). All cell lines were cultured as monolayer and maintained in RPMI1640 supplemented with 10% fetal bovine serum (FBS) in a humidified atmosphere with 5% CO2 at 37° C. MiaPaCa-2-GR culture was supplemented with 200 nM gemcitabine.
(§2) Cytotoxicity of compounds was evaluated with 3-(4,5-dimethylthiazol-2-yl)-2,5-diphenyltetrazolium bromide (MTT) assay. Cells were placed in 96-well plate at 3000-8000 cells/well. After overnight attachment, compounds were added to the wells at sequential dilutions (30 nM-10 μM for most cell lines). After 72 h treatment, MTT was added into the media to a final concentration of 300 μg/mL. Cells were incubated for 3 h at 37° C., and the insoluble formazan converted by viable cells were dissolved in 150 μL of DMSO. Absorbance at 570 nm was read by microplate reader (Molecular devices, Sunnyvale, Calif.), and inhibition of cell proliferation was calculated using the following formula: Inhibition of cell proliferation (%)=(1−ODtreatment/ODcontrol)×100%

BxPC-3 cells = assay: MTT cytotoxicity assay, BxPC-3; assay type: cell-based; conditions: Homo sapiens, three independent experiments
Protocol: as §1, §2

Panc-1 cells = assay: MTT cytotoxicity assay, Panc-1; assay type: cell-based; conditions: Homo sapiens, three independent experiments
Protocol: as §1, §2

[1] = MIA PaCa-2, 72 h, Table 1, 72 h
[2] = MIA PaCa-2, Table 2, read-out: IC 50 MiaPaCa-2
[3] = BXPC-3, 72 h, Table 1, 72 h, Mean ± SD
[4] = BXPC-3, Table 2, Mean ± SD, read-out: IC 50 BxPC-3
[5] = PANC-1, 72 h, Table 1, 72 h, Mean ± SD
[6] = PANC-1, Table 2, Mean ± SD, read-out: IC 50 Panc-1

Row | melting point [°C] | SMILES | IC50 (MiaPaCa-2 cells; [1]) [nM] | IC50 (MiaPaCa-2 cells; [2]) [nM] | IC50 (BxPC-3 cells; [3]) [nM] | IC50 (BxPC-3 cells; [4]) [nM] | IC50 (Panc-1 cells; [5]) [nM] | IC50 (Panc-1 cells; [6]) [nM]
1 | 142 | COc1cccc(NC2=CC(=O)c3ncncc3C2=O)c1 [QD353, 6-((3-methoxyphenyl)amino)quinazoline-5,8-dione] | 1800 ± 300 | 1800 ± 300 | 1800 ± 100 | 1800 ± 100 | 600 ± 100 | 600 ± 100
2 | 199 to 200 | O=C1C(Nc2cccc(-c3ccccc3)c2)=CC(=O)c2ncncc21 [QD385, 6-(Biphenyl-3-ylamino)quinazoline-5,8-dione] |  |  |  |  |  | 
3 | 292 to 293 | O=C1C(Nc2ccc(-c3ccc(Cl)cc3)cc2)=CC(=O)c2ncncc21 [QD386, 6-(4′-Chlorobiphenyl-4-ylamino)quinazoline-5,8-dione] |  |  |  |  |  | 
4 | 260 to 261 | O=C1C(Nc2ccc(-c3cc(Cl)cc(Cl)c3)cc2)=CC(=O)c2ncncc21 [QD387, 6-(3′,5′-Dichlorobiphenyl-4-ylamino)quinazoline-5,8-dione] |  |  |  |  |  | 
5 | 217 | O=C1C(Nc2cccc3c2-c2ccccc2C3)=CC(=O)c2ncncc21 [QD390, 6-(9H-Fluoren-4-ylamino)quinazoline-5,8-dione] |  |  |  |  |  | 
6 | 236 to 237 | O=C1C(Nc2ccc3c(c2)Cc2ccccc2-3)=CC(=O)c2ncncc21 [QD391, 6-(9H-Fluoren-2-ylamino)quinazoline-5,8-dione] |  |  |  |  |  | 
7 | 239 | O=C1C(Nc2ccc(-c3ccccn3)cc2)=CC(=O)c2ncncc21 [QD395, 6-(4-(Pyridin-2-yl)phenylamino)quinazoline-5,8-dione] |  |  |  |  |  | 

The remaining lines, values behind:

Row | SMILES | melting point [°C] | IC50 (MiaPaCa-2 cells; [1]) [nM] | IC50 (MiaPaCa-2 cells; [2]) [nM] | IC50 (BxPC-3 cells; [3]) [nM] | IC50 (BxPC-3 cells; [4]) [nM] | IC50 (Panc-1 cells; [5]) [nM] | IC50 (Panc-1 cells; [6]) [nM]
8 | COc1ccc(NC2=CC(=O)c3ncncc3C2=O)cc1 [QD354, 6-((4-methoxyphenyl)amino)quinazoline-5,8-dione] | 238 | 1900 ± 200 | 1900 ± 200 | 1700 ± 200 | 1700 ± 200 | 800 ± 200 | 800 ± 200
9 | COc1ccc(NC2=CC(=O)c3ncncc3C2=O)cc1OC [QD355, 6-((3,4-dimethoxyphenyl)amino)quinazoline-5,8-dione] |  | 1800 ± 100 | 1800 ± 100 | 1500 ± 200 | 1500 ± 200 | 900 ± 300 | 900 ± 300
10 | COc1cc(NC2=CC(=O)c3ncncc3C2=O)cc(OC)c1 [QD357, 6-((3,5-dimethoxyphenyl)amino)quinazoline-5,8-dione] |  | 7700 ± 2000 | 7700 ± 2000 | 16300 ± 1500 | 16300 ± 1500 | 7200 ± 800 | 7200 ± 800
11 | O=C(NCCC[P+](c1ccccc1)(c1ccccc1)c1ccccc1)c1cccc(NC2=CC(=O)c3ncncc3C2=O)c1 [QD359, (3-(3-((5,8-dioxo-5,8-dihydroquinazolin-6-yl)amino)benzamido)propyl) triphenylphosphonium bromide] |  | 16300 ± 3600 | 16300 ± 3500 | 21300 ± 2500 | 21300 ± 2500 | 14300 ± 1500 | 14300 ± 1500
12 | O=C1C(Nc2ccc(N3CCCCC3)cc2)=CC(=O)c2ncncc21 [QD388, 6-(4-(Piperidin-1-yl)phenylamino)quinazoline-5,8-dione] | 209 |  |  |  |  |  | 
13 | O=C1C(Nc2ccc(N3CCOCC3)cc2)=CC(=O)c2ncncc21 [QD389, 6-(4-Morpholinophenylamino)quinazoline-5,8-dione] | 226 to 227 |  |  |  |  |  | 
14 | CCc1ccc(-c2ccc(NC3=CC(=O)c4ncncc4C3=O)cc2)cc1 [QD392, 6-(4′-Ethylbiphenyl-4-ylamino)quinazoline-5,8-dione] | 247 |  |  |  |  |  | 
15 | O=C1C(Nc2ccc(C3CCCCC3)cc2)=CC(=O)c2ncncc21 [QD393, 6-(4-Cyclohexylphenylamino)quinazoline-5,8-dione] | 234 |  |  |  |  |  | 

From patent US10781183B2, “Small molecule inducers of reactive oxygen species and inhibitors of mitochondrial activity” (The Regents of the University of Michigan, priority 2016, dated 2020)
